# What was measured:
# [1] = tested on: caspase 8, cytochrome c, caspase 3, PARP; test: Caspase activation, cytochrome c release and PARP cleavage, Western blot; format: cell-based, human; conditions: U937; 10 μM
# Method: Western blot analysis. Thirty to fifty micrograms of cytoplasmic, nuclear or whole cell protein was resolved on 10% SDS-PAGE gel, transferred to a nitrocellulose membrane, blocked with 5% non-fat milk, and probed with specific antibodies as per manufacturer's recommended protocol. The blots were washed, exposed to HRP-conjugated secondary antibodies for 1 h, and detected by ECL reagent (Amersham Pharmacia Biotechnology, Piscataway, N.J.). The bands were quantitated using a Personal Densitometer Scan v1.30 using Imagequant software version 3.3 (Molecular Dynamics).
# Measurement of cytochrome c release. To determine the effect of guggulsterone on cytochrome c release, cells were treated with guggulsterone as indicated and then the cytosolic extracts were prepared as described (Yang, 1997). Briefly, the cells were washed with PBS, resuspended in the buffer containing 0.25 M sucrose, 30 mM Tris-HCl (pH 7.9), 1 mM EDTA, 1 mM PMSF, 2 mM sodium orthovanadate, 10 mM NaF, 2 μg/ml leupeptin, and 2 μg/ml aprotinin and then homogenized gently with a glass Dounce homogenizer for 20 strokes. The homogenates were centrifuged at 2000 rpm for 10 min to remove nuclei, and the supernatants were centrifuged at 14,000 rpm for 30 min to remove mitochondria and other insoluble fragments. The supernatants were again centrifuged as above to ensure complete removal of mitochondria. Protein ([…]) was subjected to 15% SDS-PAGE, and then Western blot analysis was performed using anti-cytochrome c antibody.
# PARP cleavage assay. For detection of cleavage products of PARP, whole-cell extracts were prepared by subjecting guggulsterone-treated cells to lysis in lysis buffer (20 mM Tris, pH 7.4; 250 mM NaCl; 2 mM EDTA, pH 8.0; 0.1% Triton-X 100; 0.01 μg/ml aprotinin; 0.005 μg/ml leupeptin; 0.4 mM PMSF; and 4 mM NaVO4). Lysates were spun at 14000 rpm for 10 min to remove insoluble material, resolved by 10% SDS PAGE, and probed with PARP antibodies.
# U937 cells = test: Cell cycle, flow cytometric analysis; format: cell-based, human; conditions: 10 μM, propidium iodide flow cytometry
# Method: Flow cytometric analysis. To determine the effect of guggulsterone on the cell cycle, U937 cells were treated for different times, washed, and fixed with 70% ethanol. After an overnight incubation at −20° C., cells were washed with PBS, and then suspended in staining buffer (Propidium iodide, 10 μg/ml; Tween-20, 0.5%; RNase, 0.1% in PBS). The cells were analyzed using a FACS Vantage flow cytometer that uses CellQuest acquisition and analysis programs (Becton Dickinson, San Jose, Calif.). Gating was set to exclude cell debris, cell doublets, and cell clumps.
# JNK = JNK assay in MKK4 mutants and wild type cells; format: cell-based; conditions: 10 μM
# Method: JNK kinase assay. To determine the effect of guggulsterone on the kinase activity of JNK, JNK complex from whole-cell extracts was precipitated with antibody against JNK1, followed by treatment with protein A/G-Sepharose beads (Pierce, Rockford, Ill.). After 2 h of incubation, the beads were washed with lysis buffer and then assayed in kinase assay mixture containing 50 mM HEPES (pH 7.4), 20 mM MgCl2, 2 mM dithiothreitol, 20 μCi of [γ-^32P]ATP, 10 μM unlabeled ATP, and 2 μg of substrate GST-c-Jun (1-79). The immunocomplex was incubated at 30° C. for 30 min and then boiled with SDS sample buffer for 5 min. Finally, the protein was resolved on 10% SDS-PAGE, the gel was dried, and the radioactive bands were visualized using the PhosphorImager. To determine the total amount of JNK1 in each sample, whole-cell extracts were subjected to Western blot analysis using anti-JNK1 antibody.
# IκBα = test: TNF-dependent IκBα degradation and phosphorylation, Western blot; format: cell-based, human; conditions: H1299; 50 μM, 4 hours, 0.1 nM TNF
# Method: Western Blot Analysis: To determine the effect of guggulsterone on TNF-dependent IκBα phosphorylation, IκBα degradation, p65 translocation and p65 phosphorylation, cytoplasmic extracts were prepared as previously described (Majumdar et al., 2001) from H1299 (2×10^6/ml) pretreated with 50 μM guggulsterone for 4 h and then exposed to 0.1 nM TNF for various times. Thirty micrograms of cytoplasmic protein was resolved on 10% SDS-PAGE gel, transferred to a nitrocellulose membrane, blocked with 5% non-fat milk, and probed with specific antibody against IκBα, posphorylated IκBα, p65 and phosphorylated p65. To determine the expression of cyclin D1, COX-2, MMP-9, clAP-1, xlAP, TRAF1, Bcl-2, Bfl-1, cFLIP, and survivin, whole-cell extracts were prepared from treated cells (2×10^6 cells in 2 ml medium), 30-50 μg protein was resolved on SDS-PAGE gel and probed by Western blot with specific antibodies as per manufacturer's recommended protocol. The blots were washed, exposed to HRP-conjugated secondary antibodies for 1 hour, and finally detected by ECL reagent (Amersham Pharmacia Biotech.). The bands were quantitated using a Personal Densitometer Scan v1.30 using IMAGEQUANT™ software version 3.3 (Molecular Dynamics).
# Akt = test: TNF-induced Akt activation, Western blot with phospho-specific anti-Akt; format: cell-based; conditions: pretreatment with guggulsterone, TNF (1 nM)
# Description: Guggulsterone Suppressed TNF-induced Activation of Akt: The results till now indicate that guggulsterone inhibits TNF-induced NF-κB activation through inhibition of IKK activation. It is possible that this inhibition is due to inhibition of an upstream kinase. Previous studies have reported that Akt can activate IKK. Thus it is possible that guggulsterone suppresses TNF-induced Akt activation. To determine the effect of guggulsterone on the activation of Akt induced by TNF, the cells were treated with guggulsterone, and then exposed to TNF (1 nM) for different times. Thereafter whole-cell extracts were prepared and Western blot analysis using phospho-specific anti-Akt antibody was performed.
# IKK = test: TNF-induced IKK activation, immune complex kinase assay; format: cell-based, human; conditions: H1299
# Method: IKK Assay: To determine the effect of guggulsterone on TNF-induced IKK activation, IKK was analyzed by a method essentially as described previously (Shishodia et al., 2003). Briefly, IKK complex was precipitated from whole-cell extracts with antibody to IKKα and IKKβ, assayed in kinase assay using GST-IκBα (1-54) as a substrate, and resolved on 10% polyacrylamide gel; the radioactive bands were visualized using a PHOSPHORIMAGER™. To determine the total amounts of IKKα and IKKβ in each sample, 30 μg of the whole-cell extract protein was resolved on a 7.5% polyacrylamide gel and analyzed by Western blot using antibody against IKKα and IKKβ.
smiles,measurement,setting,value
"CC=C1C(=O)C[C@H]2[C@@H]3CCC4=CC(=O)CC[C@]4(C)[C@H]3CC[C@]12C [guggulsterone, 4,17(20)-pregnadiene-3,16-dione]",caspase 3 activation and PARP cleavage,[1],activation of caspase 3 and PARP cleavage
same,caspase 8 activation (receptor-mediated apoptosis),[1],activation of caspase 8
same,mitochondrial cytochrome c release (non-receptor mediated apoptosis),[1],mitochondrial cytochrome c release
same,cell cycle arrest,U937 cells,arrested the cell cycle in S-phase
same,"guggulsterone induced JNK activation, dependence on MKK4",JNK,MKK4 is required for guggulsterone induced JNK activation
same,TNF-induced IκBα degradation,IκBα,TNF had no effect on IκBα degradation
same,TNF-induced IκBα phosphorylation,IκBα,almost completely suppressed IκBα phosphorylation
same,TNF-induced Akt activation,Akt,completely suppressed the activation
same,TNF-induced IKK activation,"IKK; 50 μM, 4 h, 0.1 nM TNF",completely suppressed this activation
same,expression of IKKα and IKKβ proteins,"IKK; whole cell extracts, immunoblot",had no direct effect on the expression of either IKKα

# Source: patent publication US20060019907A1, “Guggulsterone: an inhibitor of nuclear factor - kappaB and IkappaBalpha kinase activation and uses thereof” (Research Development Foundation, priority 2004, published 2006)
